From patent US8519096B2, “Citrullinated peptides for diagnosing and prognosing rheumatoid arthritis” (Nestec S.A., priority 2009, dated 2013)
Non-standard residues stand in square brackets, D forms with d. *: point of attachment. Biotin = O=C1N[C@H]2[C@H](CS[C@H]2CCCCC(=O)*)N1; Cit = NC(=O)NCCC[C@H](N)C(=O)O

System: IgG ACPAs
Assay: ACPA ELISA with anti-human IgG secondary antibody
Assay type: binding
Settings: Example 7, FIGS. 20-27
Description: The synthetic citrullnated peptides set forth in Example 6, which were designed from synovial proteins, were synthesized and evaluated for their ability to diagnose and/or prognose RA. […] The peptides were then tested for IgG ACPA dose-response in samples of synovial fluid taken from both healthy patients and patients with RA.

Substance	IgG ACPA positive response (strong/moderate)
Apo a-4: synthetic citrullinated peptide derived from Apolipoprotein a, Table 8 (Biotin-HWHQ[Cit]TTEYYPNGGLT[Cit]GGLTRNYS[Cit]N-NH2; SMILES CC(C)C[C@H](NC(=O)CNC(=O)CNC(=O)[C@H](CC(N)=O)NC(=O)[C@@H]1CCCN1C(=O)[C@H](Cc1ccc(O)cc1)NC(=O)[C@H](Cc1ccc(O)cc1)NC(=O)[C@H](CCC(=O)O)NC(=O)[C@@H](NC(=O)[C@@H](NC(=O)[C@H](CCCNC(N)=O)NC(=O)[C@H](CCC(N)=O)NC(=O)[C@H](Cc1c[nH]cn1)NC(=O)[C@H](Cc1c[nH]c2ccccc12)NC(=O)[C@H](Cc1c[nH]cn1)NC(=O)CCCC[C@@H]1SC[C@@H]2NC(=O)N[C@@H]21)[C@@H](C)O)[C@@H](C)O)C(=O)N[C@H](C(=O)N[C@@H](CCCNC(N)=O)C(=O)NCC(=O)NCC(=O)N[C@@H](CC(C)C)C(=O)N[C@H](C(=O)N[C@@H](CCCNC(=N)N)C(=O)N[C@@H](CC(N)=O)C(=O)N[C@@H](Cc1ccc(O)cc1)C(=O)N[C@@H](CO)C(=O)N[C@@H](CCCNC(N)=O)C(=O)N[C@@H](CC(N)=O)C(N)=O)[C@@H](C)O)[C@@H](C)O)	strong
Bip-3: synthetic citrullinated peptide derived from BiP, Table 8 (Biotin-GEDFSETLT[Cit]DLF[Cit]STMKPIVLVGGST[Cit]R-NH2; SMILES CC[C@H](C)[C@H](NC(=O)[C@@H]1CCCN1C(=O)[C@H](CCCCN)NC(=O)[C@H](CCSC)NC(=O)[C@@H](NC(=O)[C@H](CO)NC(=O)[C@H](CCCNC(N)=O)NC(=O)[C@H](Cc1ccccc1)NC(=O)[C@H](CC(C)C)NC(=O)[C@H](CC(=O)O)NC(=O)[C@H](CCCNC(N)=O)NC(=O)[C@@H](NC(=O)[C@H](CC(C)C)NC(=O)[C@@H](NC(=O)[C@H](CCC(=O)O)NC(=O)[C@H](CO)NC(=O)[C@H](Cc1ccccc1)NC(=O)[C@H](CC(=O)O)NC(=O)[C@H](CCC(=O)O)NC(=O)CNC(=O)CCCC[C@@H]1SC[C@@H]2NC(=O)N[C@@H]21)[C@@H](C)O)[C@@H](C)O)[C@@H](C)O)C(=O)N[C@H](C(=O)N[C@@H](CC(C)C)C(=O)N[C@H](C(=O)NCC(=O)NCC(=O)N[C@@H](CO)C(=O)N[C@H](C(=O)N[C@@H](CCCNC(N)=O)C(=O)N[C@@H](CCCNC(=N)N)C(N)=O)[C@@H](C)O)C(C)C)C(C)C)	moderate
H3-2: synthetic citrullinated peptide derived from histone (H3), Table 8 (Biotin-DFKTDL[Cit]FQSSAVMARRIRGE[Cit]AG-NH2; SMILES CC[C@H](C)[C@H](NC(=O)[C@H](CCCNC(=N)N)NC(=O)[C@H](CCCNC(=N)N)NC(=O)[C@H](C)NC(=O)[C@H](CCSC)NC(=O)[C@@H](NC(=O)[C@H](C)NC(=O)[C@H](CO)NC(=O)[C@H](CO)NC(=O)[C@H](CCC(N)=O)NC(=O)[C@H](Cc1ccccc1)NC(=O)[C@H](CCCNC(N)=O)NC(=O)[C@H](CC(C)C)NC(=O)[C@H](CC(=O)O)NC(=O)[C@@H](NC(=O)[C@H](CCCCN)NC(=O)[C@H](Cc1ccccc1)NC(=O)[C@H](CC(=O)O)NC(=O)CCCC[C@@H]1SC[C@@H]2NC(=O)N[C@@H]21)[C@@H](C)O)C(C)C)C(=O)N[C@@H](CCCNC(=N)N)C(=O)NCC(=O)N[C@@H](CCC(=O)O)C(=O)N[C@@H](CCCNC(N)=O)C(=O)N[C@@H](C)C(=O)NCC(N)=O)	moderate
T11α2-1: synthetic citrullinated peptide derived from collagen (Coll.T11α2), Table 8 (Biotin-GISPADVAY[Cit]VARPAQLYRVA[Cit]PAQLSAPT[Cit]QR-NH2; SMILES CC[C@H](C)[C@H](NC(=O)CNC(=O)CCCC[C@@H]1SC[C@@H]2NC(=O)N[C@@H]21)C(=O)N[C@@H](CO)C(=O)N1CCC[C@H]1C(=O)N[C@@H](C)C(=O)N[C@@H](CC(=O)O)C(=O)N[C@H](C(=O)N[C@@H](C)C(=O)N[C@@H](Cc1ccc(O)cc1)C(=O)N[C@@H](CCCNC(N)=O)C(=O)N[C@H](C(=O)N[C@@H](C)C(=O)N[C@@H](CCCNC(=N)N)C(=O)N1CCC[C@H]1C(=O)N[C@@H](C)C(=O)N[C@@H](CCC(N)=O)C(=O)N[C@@H](CC(C)C)C(=O)N[C@@H](Cc1ccc(O)cc1)C(=O)N[C@@H](CCCNC(=N)N)C(=O)N[C@H](C(=O)N[C@@H](C)C(=O)N[C@@H](CCCNC(N)=O)C(=O)N1CCC[C@H]1C(=O)N[C@@H](C)C(=O)N[C@@H](CCC(N)=O)C(=O)N[C@@H](CC(C)C)C(=O)N[C@@H](CO)C(=O)N[C@@H](C)C(=O)N1CCC[C@H]1C(=O)N[C@H](C(=O)N[C@@H](CCCNC(N)=O)C(=O)N[C@@H](CCC(N)=O)C(=O)N[C@@H](CCCNC(=N)N)C(N)=O)[C@@H](C)O)C(C)C)C(C)C)C(C)C)	strong
FBNT-5: synthetic citrullinated peptide derived from fibronectin, Table 8 (Biotin-RGVLTVSWE[Cit]STTPDITGY[Cit]ITTTPTNR-NH2; SMILES CC[C@H](C)[C@H](NC(=O)[C@H](CC(=O)O)NC(=O)[C@@H]1CCCN1C(=O)[C@@H](NC(=O)[C@@H](NC(=O)[C@H](CO)NC(=O)[C@H](CCCNC(N)=O)NC(=O)[C@H](CCC(=O)O)NC(=O)[C@H](Cc1c[nH]c2ccccc12)NC(=O)[C@H](CO)NC(=O)[C@@H](NC(=O)[C@@H](NC(=O)[C@H](CC(C)C)NC(=O)[C@@H](NC(=O)CNC(=O)[C@H](CCCNC(=N)N)NC(=O)CCCC[C@@H]1SC[C@@H]2NC(=O)N[C@@H]21)C(C)C)[C@@H](C)O)C(C)C)[C@@H](C)O)[C@@H](C)O)C(=O)N[C@H](C(=O)NCC(=O)N[C@@H](Cc1ccc(O)cc1)C(=O)N[C@@H](CCCNC(N)=O)C(=O)N[C@H](C(=O)N[C@H](C(=O)N[C@H](C(=O)N[C@H](C(=O)N1CCC[C@H]1C(=O)N[C@H](C(=O)N[C@@H](CC(N)=O)C(=O)N[C@@H](CCCNC(=N)N)C(N)=O)[C@@H](C)O)[C@@H](C)O)[C@@H](C)O)[C@@H](C)O)[C@@H](C)CC)[C@@H](C)O)	moderate
T2α1-3: synthetic citrullinated peptide derived from collagen (Coll.T2α1), Table 8 (Biotin-KWGKTVIEY[Cit]SQKTSRLYRSQKTS[Cit]LG-NH2; SMILES CC[C@H](C)[C@H](NC(=O)[C@@H](NC(=O)[C@@H](NC(=O)[C@H](CCCCN)NC(=O)CNC(=O)[C@H](Cc1c[nH]c2ccccc12)NC(=O)[C@H](CCCCN)NC(=O)CCCC[C@@H]1SC[C@@H]2NC(=O)N[C@@H]21)[C@@H](C)O)C(C)C)C(=O)N[C@@H](CCC(=O)O)C(=O)N[C@@H](Cc1ccc(O)cc1)C(=O)N[C@@H](CCCNC(N)=O)C(=O)N[C@@H](CO)C(=O)N[C@@H](CCC(N)=O)C(=O)N[C@@H](CCCCN)C(=O)N[C@H](C(=O)N[C@@H](CO)C(=O)N[C@@H](CCCNC(=N)N)C(=O)N[C@@H](CC(C)C)C(=O)N[C@@H](Cc1ccc(O)cc1)C(=O)N[C@@H](CCCNC(=N)N)C(=O)N[C@@H](CO)C(=O)N[C@@H](CCC(N)=O)C(=O)N[C@@H](CCCCN)C(=O)N[C@H](C(=O)N[C@@H](CO)C(=O)N[C@@H](CCCNC(N)=O)C(=O)N[C@@H](CC(C)C)C(=O)NCC(N)=O)[C@@H](C)O)[C@@H](C)O)	moderate
Bip-2: synthetic citrullinated peptide derived from BiP, Table 8 (Biotin-DVRKDN[Cit]AVQKLR[Cit]EVEKAK[Cit]ALSSQHQ-NH2; SMILES CC(C)C[C@H](NC(=O)[C@H](C)NC(=O)[C@H](CCCNC(N)=O)NC(=O)[C@H](CCCCN)NC(=O)[C@H](C)NC(=O)[C@H](CCCCN)NC(=O)[C@H](CCC(=O)O)NC(=O)[C@@H](NC(=O)[C@H](CCC(=O)O)NC(=O)[C@H](CCCNC(N)=O)NC(=O)[C@H](CCCNC(=N)N)NC(=O)[C@H](CC(C)C)NC(=O)[C@H](CCCCN)NC(=O)[C@H](CCC(N)=O)NC(=O)[C@@H](NC(=O)[C@H](C)NC(=O)[C@H](CCCNC(N)=O)NC(=O)[C@H](CC(N)=O)NC(=O)[C@H](CC(=O)O)NC(=O)[C@H](CCCCN)NC(=O)[C@H](CCCNC(=N)N)NC(=O)[C@@H](NC(=O)[C@H](CC(=O)O)NC(=O)CCCC[C@@H]1SC[C@@H]2NC(=O)N[C@@H]21)C(C)C)C(C)C)C(C)C)C(=O)N[C@@H](CO)C(=O)N[C@@H](CO)C(=O)N[C@@H](CCC(N)=O)C(=O)N[C@@H](Cc1c[nH]cn1)C(=O)N[C@@H](CCC(N)=O)C(N)=O)	moderate
H2A-1: synthetic citrullinated peptide derived from histone (H2A), Table 8 (Biotin-GLELAGNAA[Cit]DNKKTRIIP[Cit]HLQG-NH2; SMILES CC[C@H](C)[C@H](NC(=O)[C@H](CCCNC(=N)N)NC(=O)[C@@H](NC(=O)[C@H](CCCCN)NC(=O)[C@H](CCCCN)NC(=O)[C@H](CC(N)=O)NC(=O)[C@H](CC(=O)O)NC(=O)[C@H](CCCNC(N)=O)NC(=O)[C@H](C)NC(=O)[C@H](C)NC(=O)[C@H](CC(N)=O)NC(=O)CNC(=O)[C@H](C)NC(=O)[C@H](CC(C)C)NC(=O)[C@H](CCC(=O)O)NC(=O)[C@H](CC(C)C)NC(=O)CNC(=O)CCCC[C@@H]1SC[C@@H]2NC(=O)N[C@@H]21)[C@@H](C)O)C(=O)N[C@H](C(=O)N1CCC[C@H]1C(=O)N[C@@H](CCCNC(N)=O)C(=O)N[C@@H](Cc1c[nH]cn1)C(=O)N[C@@H](CC(C)C)C(=O)N[C@@H](CCC(N)=O)C(=O)NCC(N)=O)[C@@H](C)CC)	moderate
Apo a-6: synthetic citrullinated peptide derived from Apolipoprotein a, Table 8 (Biotin-HWHR[Cit]IPLYYPNAGLT[Cit]AGLTRNYS[Cit]N-NH2; SMILES CC[C@H](C)[C@H](NC(=O)[C@H](CCCNC(N)=O)NC(=O)[C@H](CCCNC(=N)N)NC(=O)[C@H](Cc1c[nH]cn1)NC(=O)[C@H](Cc1c[nH]c2ccccc12)NC(=O)[C@H](Cc1c[nH]cn1)NC(=O)CCCC[C@@H]1SC[C@@H]2NC(=O)N[C@@H]21)C(=O)N1CCC[C@H]1C(=O)N[C@@H](CC(C)C)C(=O)N[C@@H](Cc1ccc(O)cc1)C(=O)N[C@@H](Cc1ccc(O)cc1)C(=O)N1CCC[C@H]1C(=O)N[C@@H](CC(N)=O)C(=O)N[C@@H](C)C(=O)NCC(=O)N[C@@H](CC(C)C)C(=O)N[C@H](C(=O)N[C@@H](CCCNC(N)=O)C(=O)N[C@@H](C)C(=O)NCC(=O)N[C@@H](CC(C)C)C(=O)N[C@H](C(=O)N[C@@H](CCCNC(=N)N)C(=O)N[C@@H](CC(N)=O)C(=O)N[C@@H](Cc1ccc(O)cc1)C(=O)N[C@@H](CO)C(=O)N[C@@H](CCCNC(N)=O)C(=O)N[C@@H](CC(N)=O)C(N)=O)[C@@H](C)O)[C@@H](C)O)	strong
